One assay relates to RAJI. In words: In vitro activity in human leukemic cell line RAJI. The conditions noted are these: read-out: ID50 (the source's name). The assay is classed as cell-based. An excerpt: (§1) CNUCLEOSIDES IN MOUSE AND HUMAN LEUKYMIC CELL LINES
(§2) It is noted that the first compound in Table 1 is the compound reported in Lim et al (supra).

The test system of another assay is ALL-CCRF-CEM. The experiment in a line: In vitro activity in human leukemic cell line ALL-CCRF-CEM. The assay is classed as cell-based. The conditions noted are these: read-out: ID50 (the source's name).
From the text: as §1, §2

Another assay deals with P-815. In words: In vitro activity in mouse leukemic cell line P-815. The conditions noted are these: P815, P-815, in vitro, read-out: ID50 (the source's name). In kind it is cell-based.
From the text: as §1, §2

In the next assay the test system is leukemic cells. The experiment in a line: Anti-leukemic / antitumor activity using usual techniques of the art (summary statements). The assay is classed as cell-based, mouse and human. The conditions noted are these: in words.
From the text: as §2

In the next assay the test system is HL-60. In words: In vitro activity in human leukemic cell line HL-60. The assay is classed as cell-based. The conditions noted are these: HL-60, in vitro, read-out: ID50 (the source's name).
From the text: as §1, §2

The next assay has as its system L-1210. The experiment in a line: In vitro activity in mouse leukemic cell line L-1210. The conditions noted are these: L1210, L-1210, in vitro, read-out: ID50 (the source's name). In kind it is cell-based.
From the text: as §1, §2

The test system of another assay is L-1210/0. The experiment in a line: In vivo activity of C-nucleosides in mice, L-1210/0 line.
From the text: (§3) IN VIVO ACTIVITY OF CNUCLEOSIDES IN MICE
as §2

The next assay has as its system L-1210/MP. The experiment in a line: In vivo activity of C-nucleosides in mice, L-1210/MP line. The conditions noted are these: Q4D × 3,D1 @ 0.4 MG/KG.
From the text: as §3, §2

The subject of a further assay is P-815/ARA C. The experiment in a line: In vivo activity of C-nucleosides in mice, P-815/ARA C line.
From the text: as §3, §2

The next assay relates to P-815/0. The experiment in a line: In vivo activity of C-nucleosides in mice, P-815/0 line.
From the text: as §3, §2

Results on eight molecules are retold here after US4584369A, “Anti-leukemic beta-glycosyl C-nucleosides” (Sloan-Kettering Institute for Cancer Research, priority 1984, dated 1986).

Converted amounts (≈) assume the structure as drawn.

On to `O=c1[nH]cnc2c([C@@H]3O[C@H](CO)[C@@H](O)[C@H]3O)c[nH]c12` [X = NH, R1 -- OH, R2 = H, reference compound], for which the IC50 is more than 100 µg/mL in the assay on RAJI; more than 100 µg/mL in the assay with ALL-CCRF-CEM; more than 10 µg/mL with P-815; more than 100 µg/mL in the assay on HL-60; more than 100 µg/mL in the assay on L-1210. Further, the “antitumor / anti-leukemic activity” value is “essentially no antitumor activity” with leukemic cells (listed as X--NH, R1 =OH) and “lack of activity” in the assay with leukemic cells (listed as first compound in Table 1).

With `Nc1nc[nH]c2c([C@@H]3O[C@H](CO)[C@@H](O)[C@H]3O)cnc1-2` [X = NH, R1 = NH2, R2 = H, 7-(β-D-Ribofuranosyl)-4-amino-pyrrolo[3,2-d]pyrimidine], the “% ILS” value with L-1210/0 (Q4D × 3,D1 @ 0.25 MG/KG) came out at 17.0%; in the assay with L-1210/0 (QD × 5,D1 @ 0.5 MG/KG), 9.1%; in the assay with L-1210/MP, 71.8%; in the assay with P-815/ARA C (Q4D × 3,D1 @ 0.4 MG/KG), 19.8%; with P-815/ARA C (Q4D × 3,D1 @ 0.7 MG/KG), 30.8%. The IC50 was 0.002 µg/mL (≈ 0.00751 µM) in the assay on RAJI; 0.0008 µg/mL (≈ 0.003 µM) with ALL-CCRF-CEM; 0.001 µg/mL (≈ 0.00376 µM) with P-815; 0.0003 µg/mL (≈ 0.00113 µM) in the assay on HL-60; 0.0008 µg/mL (≈ 0.003 µM) in the assay on L-1210.

In the case of `OC[C@H]1O[C@@H](c2c[nH]c3c(=S)[nH]cnc23)[C@H](O)[C@@H]1O` [X = NH, R1 = SH, R2 = H], in the assay on P-815, the IC50 came out at 5.6 µg/mL (≈ 19.8 µM).

As to `CSc1ncnc2c([C@@H]3O[C@H](CO)[C@@H](O)[C@H]3O)c[nH]c12` [X = NH, R1 = SMe, R2 = H], the IC50 with P-815 worked out at 0.3 µg/mL (≈ 1.01 µM).

On to `Nc1ncnc2c([C@@H]3O[C@H](CO)[C@@H](O)[C@H]3O)csc12` [X = S, R1 = NH2, R2 = H, 7-(β-D-ribofuranosyl)-4-amino-thieno[3,2-d]pyrimidine], for which the IC50 with RAJI is 0.002 µg/mL (≈ 0.00706 µM); in the assay with ALL-CCRF-CEM it was 0.0005 µg/mL (≈ 0.00176 µM); in the assay on P-815, 0.0003 µg/mL (≈ 0.00106 µM); in the assay with HL-60, 0.0005 µg/mL (≈ 0.00176 µM); in the assay on L-1210, 0.0006 µg/mL (≈ 0.00212 µM).

With `O=c1[nH]cnc2c([C@@H]3O[C@H](CO)[C@@H](O)[C@H]3O)csc12` [X = S, R1 = OH, R2 = H, 7-(β-D-Ribofuranosyl)-3H-4-oxo-thieno[3,2-d]pyrimidine], the IC50 in the assay with RAJI was 4.2 µg/mL (≈ 14.8 µM); in the assay with ALL-CCRF-CEM, 0.9 µg/mL (≈ 3.17 µM); with P-815 it was 2.5 µg/mL (≈ 8.79 µM); in the assay with HL-60 it was 0.4 µg/mL (≈ 1.41 µM); in the assay on L-1210 it was 3.3 µg/mL (≈ 11.6 µM).

In the case of `OC[C@H]1O[C@@H](c2csc3c(=S)[nH]cnc23)[C@H](O)[C@@H]1O` [X = S, R1 = SH, R2 = H, 7-(β-D-ribofuranosyl)-3H-4-thiono-thieno[3,2-d]pyrimidine], the IC50 is 0.9 µg/mL (≈ 3 µM) with RAJI; 1.6 µg/mL (≈ 5.33 µM) in the assay with ALL-CCRF-CEM; 0.5 µg/mL (≈ 1.66 µM) in the assay on P-815; 0.4 µg/mL (≈ 1.33 µM) with HL-60; 0.6 µg/mL (≈ 2 µM) in the assay with L-1210.

As to `CSc1ncnc2c([C@@H]3O[C@H](CO)[C@@H](O)[C@H]3O)csc12` [X = S, R1 = SMe, R2 = H, 7-(β-D-Ribofuranosyl)-4-methylthio-thieno[3,2-d]pyrimidine], the IC50 turned out to be 0.03 µg/mL (≈ 0.0954 µM) with RAJI; 0.006 µg/mL (≈ 0.0191 µM) with ALL-CCRF-CEM; 0.03 µg/mL (≈ 0.0954 µM) with P-815; 0.008 µg/mL (≈ 0.0254 µM) with HL-60; 0.07 µg/mL (≈ 0.223 µM) in the assay on L-1210. The “% ILS” value in the assay with P-815/0 (Q4D × 4,D1 @ 40 MG/KG) is reported as 56.3%; in the assay with P-815/0 (QD × 2/Q2D × 3 @ 60 MG/KG), 71.4%.
